Reference: PMC4644816, “A Tetrameric Peptide Derived from Bovine Lactoferricin Exhibits Specific Cytotoxic Effects against Oral Squamous-Cell Carcinoma Cell Lines” (BioMed Research International, 2015)
Where a SMILES comes first, the peptide text is derived from it. Bridges are numbered along the chain shown (N, C = ends). Roman numbers before positions name the chains, in order. Where no end group is shown, it is not given here. [ ]: non-standard residue; d: D form. Ahx = NCCCCCC(=O)O

What was measured:
[1] = test system: CAL27 cells; experiment: MTT cytotoxic assay, CAL27; type: cell-based
Description: (§1) The cell lines CAL27 (ATCC CRL-2095) and SCC15 (ATCC CRL-1623) and the human immortalized nontumorigenic epithelial esophagus cell line Het-1A (ATCC CRL-2692) were purchased from ATCC (Manassas, VA). CAL27 cells were cultured in Dulbecco's Modified Eagle's Medium (DMEM; Gibco) with 10% of fetal bovine serum (FBS; Gibco). […] Het-1A cells were cultured in Bronchial Epithelial Cell Growth Medium (BEBM) with the additives obtained from Lonza/Clonetics Corporation as a kit (CC-3170), without antibiotics. All cells were maintained at 37°C in a 5% CO2 humidified atmosphere. For Het-1A cells, the culture flasks were precoated with fibronectin (0.01 mg/mL), bovine collagen type I (0.03 mg/mL), and bovine serum albumin (0.01 mg/mL) dissolved in a culture medium and incubated for 24 h before culturing the cells. Cell stocks were prepared and thawed periodically and used in early subcultures (not exceeding 5–10 population doublings). Cell viability was estimated by Trypan blue exclusion staining and was always higher than 97%. Growth curves for each cell line were done using 3-(4,5-dimethylthiazol-2-yl)-2,5-diphenyltetrazolium bromide (MTT). […] SCC15 cells having a mesenchymal- or epithelia-like phenotype were separated by their differential adherence to plastic dish and characterized for the expression of specific markers (see Section 2.7). Cytotoxic activity was determined using the MTT assay. Briefly, cells were seeded in 96-well plates with a confluence of approximately 70% (8 × 10^3 CAL27-cells/well, 4 × 10^3 SCC15-cells/well, and 1.6 × 10^4 Het-1A-cells/well). After cell adherence, the culture medium was removed and peptides at different concentrations (between 100 and 6.25 μg/mL) and times (between 1 and 24 h or 48, 72, and 96 h) were added to the wells in the absence of FBS. Staurosporine (STA) was used as positive control (CAL27: 0.4 μg/mL, SCC15 0.6 μg/mL, and Het-1A 0.6 μg/mL). Phase-contrast photomicrographs of the treated cells were taken (Nikon, Eclipse TS500). After treatment, the medium was replaced with 100 μL of complete culture media with 10% of MTT (5 mg/mL), and cells were incubated for 4–6 h. Finally, 100 μL of DMSO was added in order to lyse the cells and release and solubilize the Formazan crystals. After 10 min of incubation at 37°C, absorbance was measured at 550 nm. […] In some experiments and after treatments, remaining viable cells were treated again with peptides. Cells were first treated with peptides for 24 h and washed carefully and then fresh culture medium was added and cells were further incubated for 72 h.

[2] = test system: SCC15 cells; experiment: MTT cytotoxic assay, SCC15; type: cell-based
Description: as §1

[3] = test system: Het-1A cells; experiment: MTT cytotoxic assay, Het-1A; type: cell-based, human
Description: as §1

[4] = test system: normal human erythrocytes; type: cell-based
Description: 5 mL of heparinized peripheral blood was centrifuged at 1000 g for 7 min. The erythrocyte-rich fraction was resuspended in 10 mL of PBS and washed twice by centrifugation at 1000 g for 7 min. […] PBS was used as negative control, while Tween-20 (20% v/v) in PBS was used as positive controls. The 96-well plates were centrifuged, the supernatants were collected, and the absorbance was determined at 540 nm.

[5] = test system: CAL27 cells; experiment: Apoptotic/necrotic assay (Annexin V-FITC/PI flow cytometry), CAL27; conditions: CAL27, 1 h treatment
Description: (§2) 1 × 10^5 CAL27 and Het-1A cells were treated with peptides for 1 h at 37°C and then labeled with Annexin V-FITC/PI, using the Dead Cell Apoptosis Kit for flow cytometry (Thermo Fisher Scientific). As a control for necrosis, the cells were treated for 5 min with 0.2% T-X100.

[6] = test system: Het-1A cells; experiment: Apoptotic/necrotic assay (Annexin V-FITC/PI flow cytometry), Het-1A; conditions: 1 h treatment
Description: as §2

Compound: CC[C@H](C)[C@H](NC(=O)[C@H](CO)NC(=O)[C@@H]1CCCN1C(=O)[C@H](C)NC(=O)CNC(=O)[C@H](CC(C)C)NC(=O)[C@H](CCCCN)NC(=O)[C@H](CCCCN)NC(=O)[C@H](CCSC)NC(=O)[C@H](CCCNC(=N)N)NC(=O)[C@H](Cc1c[nH]c2ccccc12)NC(=O)[C@H](CCC(N)=O)NC(=O)[C@H](Cc1c[nH]c2ccccc12)NC(=O)[C@H](CCCNC(=N)N)NC(=O)[C@H](CCCNC(=N)N)NC(=O)[C@H](CS)NC(=O)[C@H](CCCCN)NC(=O)[C@@H](N)Cc1ccccc1)C(=O)N[C@H](C(=O)N[C@@H](CS)C(=O)N[C@H](C(=O)N[C@@H](CCCNC(=N)N)C(=O)N[C@@H](CCCNC(=N)N)C(=O)N[C@@H](C)C(=O)N[C@@H](Cc1ccccc1)C(N)=O)C(C)C)[C@@H](C)O [LfcinB25, reference compound]
- cytotoxicity ([1]; CAL27, 24 h, highest concentration tested 100 μg/mL (LfB 1.25 μM, LfcinB25 32 μM, LfcinB(20–25)4 22.25 μM), MTT): 64.4%
- cytotoxicity ([2]; SCC15, 24 h, highest concentration tested 100 μg/mL (LfB 1.25 μM, LfcinB25 32 μM, LfcinB(20–25)4 22.25 μM), MTT): 60%
- cytotoxicity ([3]; Het-1A, 24 h, highest concentration tested 100 μg/mL (LfB 1.25 μM, LfcinB25 32 μM, LfcinB(20–25)4 22.25 μM), MTT): 60.5%

Compound: N=C(N)NCCC[C@H](NC(=O)[C@H](Cc1c[nH]c2ccccc12)NC(=O)[C@H](CCC(N)=O)NC(=O)[C@H](Cc1c[nH]c2ccccc12)NC(=O)[C@H](CCCNC(=N)N)NC(=O)[C@@H](N)CCCNC(=N)N)C(=O)NCCCC[C@H](NC(=O)[C@H](CCCNC(=N)N)NC(=O)[C@H](Cc1c[nH]c2ccccc12)NC(=O)[C@H](CCC(N)=O)NC(=O)[C@H](Cc1c[nH]c2ccccc12)NC(=O)[C@H](CCCNC(=N)N)NC(=O)[C@@H](N)CCCNC(=N)N)C(=O)NCCCCCC(=O)N[C@@H](CSSC[C@H](NC(=O)CCCCCNC(=O)[C@H](CCCCNC(=O)[C@H](CCCNC(=N)N)NC(=O)[C@H](Cc1c[nH]c2ccccc12)NC(=O)[C@H](CCC(N)=O)NC(=O)[C@H](Cc1c[nH]c2ccccc12)NC(=O)[C@H](CCCNC(=N)N)NC(=O)[C@@H](N)CCCNC(=N)N)NC(=O)[C@H](CCCNC(=N)N)NC(=O)[C@H](Cc1c[nH]c2ccccc12)NC(=O)[C@H](CCC(N)=O)NC(=O)[C@H](Cc1c[nH]c2ccccc12)NC(=O)[C@H](CCCNC(=N)N)NC(=O)[C@@H](N)CCCNC(=N)N)C(N)=O)C(N)=O [LfcinB(20–25)4] (I: H-RRWQWRK[Ahx]C-NH2 / II: H-RRWQWRK[Ahx]C-NH2 / III: H-RRWQWR / IV: H-RRWQWR; amide I:7-III:C, II:7-IV:C; disulfide I:9-II:9; N-terminus and C-terminus assumed)
- cytotoxicity of a second addition of the peptide (in words) [1]: reduced to the same extent as the one obtained after the first treatment
- IC50 ([1]; 1 h): 16 ± 1.36 µM
- IC50 ([1]; 3 h): 17.4 ± 1.77 µM
- IC50 ([1]; 24 h): 9.02 ± 1.38 µM
- IC50 ([2]; 1 h): 13.6 ± 1.06 µM
- IC50 ([2]; 3 h): 12.6 ± 1.06 µM
- IC50 ([2]; 24 h): 9.05 ± 1.07 µM
- IC50 ([3]; 3 h): 18.8 ± 1.11 µM
- IC50 ([3]; 24 h): 17.4 ± 1.11 µM
- concentration at which lysis of erythrocytes was shown [4]: 500 µg/mL
- apoptotic cell population (PI−/Annexin+), in words [5]: not detected
- apoptotic cell population (PI−/Annexin+), in words [6]: not detected

Compound: RRWQWR-NH2 (C-terminus assumed) [LfcinB(20–25)]
- IC50 ([1]; 1 h): > 101 µM
- IC50 ([1]; 3 h): > 101 µM
- IC50 ([1]; 24 h): > 101 µM
- IC50 ([2]; 1 h): > 101 µM
- IC50 ([2]; 3 h): > 101 µM
- IC50 ([2]; 24 h): > 101 µM
- IC50 ([3]; 1 h): > 101 µM
- IC50 ([3]; 3 h): > 101 µM
- IC50 ([3]; 24 h): > 101 µM

Compound: RWQWRWQWR-NH2 (C-terminus assumed) [LfcinB-Pal]
- IC50 ([1]; 1 h): 22.8 ± 1.12 µM
- IC50 ([1]; 3 h): 22.6 ± 1.02 µM
- IC50 ([1]; 24 h): 21.5 ± 1.05 µM
- cytotoxic effect (in words) ([1]; CAL27, 24 h, MTT, up to 100 μg/mL): clearly improved the cytotoxic effect
- IC50 ([2]; 1 h): > 67.3 µM
- IC50 ([2]; 3 h): > 67.3 µM
- IC50 ([2]; 24 h): > 67.3 µM
- cytotoxic effect (in words) ([2]; SCC15, 24 h, MTT, up to 100 μg/mL): only slightly
- IC50 ([3]; 1 h): > 67.3 µM
- IC50 ([3]; 3 h): 62.2 ± 1.56 µM
- IC50 ([3]; 24 h): > 67.3 µM
- cytotoxic effect (in words) ([3]; Het-1A, 24 h, MTT, at 40 μM): low
